Measurements from patent publication US4780464A, “(1,2,4)triazolo(4,3-a)quinoxaline-4-amines” (Warner-Lambert Company, priority 1986, dated 1988).

What was measured:
adenosine A2 receptor = biological target: T1, adenosine A2 receptor (Rattus norvegicus, UniProt P30543); test: Adenosine Receptor Binding--A2 Receptor Affinity (RBA2), [3H]NECA, rat striatal membranes; design: species or system rat (Sprague-Dawley; Long-Evans hooded); settings: 4 nM [3H]NECA, 50 nM N6-cyclopentyladenosine, 25° C., 60 min, read-out: RBA-2 (IC50, adenosine A2 receptor affinity)
T1 construct: Brains are thawed and then kept on ice while the striata are dissected out; tissue Pel-Freez (Rogers, Arkansas); host or cells: rat striatum, membranes
T1 sequence (P30543 whole entry): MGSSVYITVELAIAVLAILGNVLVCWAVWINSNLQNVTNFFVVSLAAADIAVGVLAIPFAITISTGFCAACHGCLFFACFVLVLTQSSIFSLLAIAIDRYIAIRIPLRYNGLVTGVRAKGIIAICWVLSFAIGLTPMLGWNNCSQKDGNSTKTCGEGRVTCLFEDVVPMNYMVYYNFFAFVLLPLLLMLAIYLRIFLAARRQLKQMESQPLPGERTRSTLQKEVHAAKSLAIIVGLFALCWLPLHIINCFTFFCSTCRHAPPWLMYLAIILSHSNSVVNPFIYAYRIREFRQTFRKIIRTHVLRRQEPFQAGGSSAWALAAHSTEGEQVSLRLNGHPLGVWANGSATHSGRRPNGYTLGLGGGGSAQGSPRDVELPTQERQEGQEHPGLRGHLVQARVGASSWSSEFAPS
Description: Brains from 200-500 g mixed sex Sprague-Dawley rats are purchased from Pel-Freez (Rogers, Arkansas). Fresh brains from male Long-Evans hooded rats (Blue Spruce Farms, Altamont, NY) give essentially identical results. Brains are thawed and then kept on ice while the striata are dissected out. Striata are disrupted in 10 vol of ice-cold 50 mM Tris.HCl (pH 7.7 at 25° C., pH 8.26 at 5° C.) (Tris) for 30 seconds in a Polytron PT-10 (Brinkman) at setting 5. The suspension is centrifuged at 50,000 xg for ten minutes, the supernatant discarded, the pellet resuspended in 10 vol ice-cold Tris as above, recentrifuged, resuspended at 1 g/5 ml, and stored in plastic vials at -70° C. (stable for at least six months). When needed, tissue is thawed at room temperature, disrupted in a Polytron, and kept on ice until used.
All incubations are for 60 minutes at 25° C. in 12×75 mm glass tubes containing 1 ml Tris with 5 mg original tissue weight of rat weight of rat striatal membranes, 4 nM [^3 H]-N-ethyl adenosine-5'-carboxamide ([^3 H]NECA), 50 nM N6-cyclopentyladenosine (to eliminate A1 receptor binding), 10 mM MgCl2, 0.1 units/ml of adenosine deaminase and 1% dimethylsulfoxide. N6-Cyclopentyladenosine is dissolved at 10 mM in 0.02 N HCl and diluted in Tris. Stock solutions and dilutions of N6-cyclopentyladenosine can be stored at -20° C. for several months. Test compounds are dissolved at 10 mM in dimethylsulfoxide on the same day as the experiment, and diluted in dimethylsulfoxide to 100× the final incubation concentration. […] [^3 H]NECA is diluted to 40 nM in Tris. The membrane suspension (5 mg/0.79 ml) contained sufficient MgCl2 and adenosine deaminase to give 10 mM and 0.1 units/ml, respectively, final concentration in the incubation. […] After all additions, the rack of tubes is vortexed, and the tubes are then incubated for 60 min at 25° C. in a shaking water bath. The rack of tubes is vortexed an additional time halfway through the incubation.
Incubations are terminated by filtration through 2.4 cm GF/B filters under reduced pressure. Each tube is filtered as follows: the contents of the tube are poured on the filter, 4 ml of ice-cold Tris are added to the tube and the contents poured onto the filter, and the filter is washed twice with 4 ml of ice-cold Tris. The filtration is complete in about twelve seconds. Filters are put in scintillation vials, 8 ml of Formula 947 scintillation fluid added, and the vials left overnight, shaken, and counted in a liquid scintillation counter at 40% efficiency.
Nonspecific binding is defined as binding in the presence of 100 μM N6-cyclopentyladenosine, and specific binding is defined as total binding minus nonspecific binding. The IC50 is calculated by weighted nonlinear least squares curve-fitting to the mass-action equation. [formula] where
Weighting factors are calculated under the assumption that the standard deviation was proportional to the predicted value of Y. Nonspecific binding is treated as a very large (infinite) concentration of drug in the computer analysis.

adenosine A1 receptor = biological target: T2, adenosine A1 receptor (Rattus norvegicus, UniProt P25099); test: Adenosine Receptor Binding--A1 Receptor Affinity (RBA1), [3H]-CHA, rat whole brain minus cerebellum and brainstem membranes; design: species or system rat (male Long-Evans); settings: 1.0 nM [3H]-CHA, pH 7.7, 25° C., one hour, read-out: RBA-1 (IC50, adenosine A1 receptor affinity)
T2 construct: Whole brain minus cerebellum and brainstem from male Long-Evans rats (150-200 g) is homogenized; from tissue; host or cells: rat whole brain minus cerebellum and brainstem, membranes
T2 sequence (P25099 1-326): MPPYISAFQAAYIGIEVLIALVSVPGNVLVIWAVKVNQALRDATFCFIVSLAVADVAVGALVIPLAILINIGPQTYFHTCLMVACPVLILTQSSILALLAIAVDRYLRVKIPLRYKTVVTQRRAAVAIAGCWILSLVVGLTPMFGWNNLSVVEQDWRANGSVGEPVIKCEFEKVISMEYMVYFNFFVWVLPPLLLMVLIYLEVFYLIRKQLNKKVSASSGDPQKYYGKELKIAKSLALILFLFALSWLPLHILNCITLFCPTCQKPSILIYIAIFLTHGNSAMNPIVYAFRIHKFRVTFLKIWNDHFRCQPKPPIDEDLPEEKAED
Description: Whole brain minus cerebellum and brainstem from male Long-Evans rats (150-200 g) is homogenized in 30 volumes of ice-cold 0.05 M Tris-HCl buffer pH 7.7 using a Brinkman Polytron PT-10, (setting number 6 for 20 seconds) and centrifuged for ten minutes at 20,000×g (Sorvall RC-2), 4° C. The supernatant is discarded, and the pellet is resuspended and centrifuged as before. The pellet is resuspended in 20 ml Tris-HCl buffer containing two International Units/ml of adenosine deaminase (Sigma type III from calf intestinal mucosa), incubated at 37° C. for 30 minutes, then subsequently at 0° C. for ten minutes. The homogenate is again centrifuged, and the final pellet is resuspended in ice-cold 0.05 M Tris-HCl buffer pH 7.7 to a concentration of 20 mg/ml original wet tissue weight and used immediately. […] Incubation volume was 2 ml. […] The filters are rinsed three times with 5 ml of ice-cold 0.05 M Tris-HCl buffer pH 7.7. The radio-labeled ligand retained on the filter is measured by liquid scintillation spectrophotometry after shaking the filters for one hour or longer on a mechanical shaker in 10 ml of Beckman Ready-Solv HP scintillation cocktail. Nonspecific binding is defined as the binding which occurs in the presence of 1 mM theophylline. […] The Scatchard plot is calculated by linear regression of the line obtained by plotting the amount of radioligand bound (pmoles/gram of tissue) versus [formula] Since the amount of radioligand bound is a small fraction of the total amount added, free radioligand is defined as the concentration of (nM) of radioligand added to the incubation mixture. The Hill coefficient is calculated by linear regression of the line obtained by plotting the log of the bound radioligand vs the log of the [formula] The maximal number of binding sites (Bmax) is calculated from the Scatchard plot.

IC50 (adenosine A2 receptor) [µM]	IC50 (adenosine A1 receptor) [µM]	SMILES
8.69	0.074	CCc1nnc2c(N[C@@H]3C[C@H]4CC[C@@H]3C4)nc3ccccc3n12 (relative stereo) [Example 9, Exo-N-bicyclo[2.2.1]hept-2-yl-1-ethyl[1,2,4]triazolo [4,3-a]quinoxalin-4-amine]
7.77	0.331	c1ccc2c(c1)nc(NC1CCCC1)c1nncn12 [Example 1, N-Cyclopentyl[1,2,4]triazolo[4,3-a]quinoxalin-4-amine]
6.13	0.071	Cc1nnc2c(NC3CCCC3)nc3ccccc3n12 [Example 2, N-cyclopentyl-1-methyl[1,2,4]triazolo[4,3-a]quinoxalin-4-amine]
2.51	0.0497	CCc1nnc2c(NC3CCCC3)nc3ccccc3n12 [Example 3, N-Cyclopentyl-1-ethyl[1,2,4]triazolo[4,3-a]quinoxalin-4-amine]
5.08	0.068	CCCc1nnc2c(NC3CCCC3)nc3ccccc3n12 [Example 4, N-Cyclopentyl-1-propyl[1,2,4]triazolo[4,3-a]quinoxalin-4-amine]
> 100	0.101	CCCCc1nnc2c(NC3CCCC3)nc3ccccc3n12 [Example 5, 1-Butyl-N-cyclopentyl[1,2,4]triazolo[4,3-a]quinoxalin-4-amine]
6.63	0.487	CCc1nnc2c(NC3CC3)nc3ccccc3n12 [Example 6, N-Cyclopropyl-1-ethyl[1,2,4]triazolo[4,3-a]quinoxalin-4-amine]
2.32	0.109	CCc1nnc2c(NC3CCC3)nc3ccccc3n12 [Example 7, N-Cyclobutyl-1-ethyl[1,2,4]triazolo[4,3-a]quinoxalin-4-amine]
5.88	0.146	CCc1nnc2c(NC3CCCCC3)nc3ccccc3n12 [Example 8, N-Cyclohexyl-1-ethyl[1,2,4]triazolo[4,3-a]quinoxalin-4-amine]
40.7	0.554	CCc1nnc2c(NC[C@H](C)O)nc3ccccc3n12 [Example 10, (S)-1-[(1-ethyl[1,2,4]triazolo[4,3-a]quinoxalin-4-yl)amino]-2-propanol]
20	0.982	CCc1nnc2c(Nc3ccccc3)nc3ccccc3n12 [Example 11, 1-Ethyl-N-phenyl[1,2,4]triazolo[4,3-a]quinoxalin-4-amine]
2.08	0.0125	FC(F)(F)c1nnc2c(NC3CCCC3)nc3ccccc3n12 [Example 13, N-Cyclopentyl-1-(trifluoromethyl)[1,2,4]triazolo [4,3-a]quinoxalin-4-amine]
